Experimental data from patent US6821954B2, “Compounds and uses thereof in treating bone disorders” (Auckland UniServices Limited, priority 1997, dated 2004).
Bridge positions count the residues as written; N and C are the ends. Ends that are not written are not given here. Peptide text beside a SMILES is read from it.

Experiments:
fetal rat osteoblasts = test: Osteoblast proliferation studies (cell counts and [3H]-thymidine incorporation) in osteoblast-like cell culture; type: cell-based; conditions: for effect on osteoblast cell number / effect on thymidine incorporation / proliferative effect on osteoblasts: 10^−9 M; for effect on osteoblast cell number: 24 h incubation; for effect on osteoblast cell number / effect on thymidine incorporation: FIG. 1; for effect on thymidine incorporation: last two hours of 24 h incubation; for EC50: read-out: half-maximally effective concentration on cell number; for proliferative effect on osteoblasts: cell number and thymidine incorporation; for concentration that completely blocked the proliferative effect of intact amylin: intact amylin 10^−9 M, cell number, FIG. 4; for blocking of the action of intact amylin on cell number / blocking of the action of intact amylin on thymidine incorporation: equimolar concentrations (10^−9 M), FIG. 5, FIG. 9; for blocking of the effects of amylin-(1-8) on osteoblast proliferation: equimolar concentrations
Protocol: Osteoblasts were isolated by collagenase-digestion from 20-day fetal rat calvariae. Calvariae were dissected aseptically and the frontal and parietal bones were stripped of their periosteum. only the central portions of the bones, free from sutrue tissue, were collected. The calvariae were treated twice with phosphate buffered saline (PBS) containing 3 mM EDTA (pH 7.4) for 15 minutes at 37E C. in a shaking water bath. After washing once in PBS, the calvariae were treated twice with 3 ml of 1 mg/ml collagenase for 7 minutes at 37E C. After discarding the supernatants from digestions I and II, the calvariae were treated a further twice with 3 ml of 2 mg/ml collagenase (30 mins, 37E C.). The supernatants of digestions III and IV were pooled, centrifuged, and the cells washed in Dulbecco's modified Eagle's medium (DME) with 10% fetal calf serum (FCS), suspended in further DME/10% FCS and placed in 75 cm^2 flasks. The cells were incubated under 5% CO2 and 95% air at 37E C. Confluence was reached by 5-6 days, at which time the cells were subcultured. After trypsinization using trypsin-EDTA (0.05%/0.53 mM), the cells were rinsed in minimum essential medium (MEM) with 5% FCS and resuspended in fresh medium, the seeded at 5×10^4 cells/ml in 24-well plates (0.5 ml cell suspension per well, i.e. 2.5×10^4 cells/well).
Proliferation studies (cell counts and thymidine incorporation) were performed in subconfluent cell populations, 24 h after subculturing cells were changed to serum-free medium with 0.1% bovine serum albumin plus the experimental compounds. Cell numbers were analysed 24 hours after addition of the peptide or vehicle by detaching cells form the wells by exposure to trypsin/EDTA (0.05%/0.53 mM) for approximately 5 minutes at 37E C. Counting was performed in a hemocytometer chamber. Results are expressed per well. [^3H]-Thymidine incorporation into actively-growing and growth-arrested cells was assessed by pulsing the cells with [^3H]-thymidine ([…]) two hours before the end of the experimental incubation. Experiments were terminated at 24 hours by washing the cells in MEM followed by the addition of 10% trichloroacetic acid. The precipitate was washed twice with ethanol:ether (3:1) and the wells desiccated at room temperature. The residue was redissolved in 2 M KOH at 55E C. for 30 mins, neutralized with 1 M HCI, and an aliquot counted for radioactivity. Results are expressed as dpm per well. For cell counts and thymidine incorporation, each experiment was performed at least four different times using experimental groups consisting of at least six wells.

neonatal mouse calvariae = test: Bone resorption in bone organ culture (45Ca release); type: cell-based; conditions: for effect on basal bone resorption: 10^−8 M, calcium release, FIG. 6
Protocol: Bone resorption studies were carried out in neonatal mouse calvariae as described previously. Mice were injected subcutaneously with […] at 2 days of age, and hemicalvariae were dissected out four days later. Hemicalvariae were pre-incubated for 24 hours in medium 199 with 0.1% bovine serum albumin, then changed to fresh medium containing peptide or vehicle. Incubation was continued for a further 48 hours. There were 5-7 hemicalvariae in each group.

[1] = Catabolism of peptides in calvarial organ culture (pre-incubation, then test on osteoblast proliferation); type: in vitro ADME, mouse; conditions: for effect of pre-incubation for two hours on osteoblastic activity: pre-incubation in calvarial organ culture 2 hours; for effect of pre-incubation for two hours on osteoblastic activity / osteoblastic activity after pre-incubation for four or more hours: cell number or thymidine incorporation, FIG. 7; for osteoblastic activity after pre-incubation for four or more hours: pre-incubation in calvarial organ culture four or more hours; for ability to block amylin's stimulation of osteoblast proliferation after pre-incubation: pre-incubation with calvariae for six hours, FIG. 8
Protocol: To determine whether the various peptide fragments underwent significant catabolism in organ culture, they were incubated with calvariae before being added to osteoblast cultures. The organ cultures were set up using hemicalvariae from animals that had not be pretreated with ^45Ca. The fragments or vehicle were incubated with the calvariae for 2, 4, or 6 hours. Extracts of the media were removed then immediately added to osteoblast cultures for measurement of their effects on osteoblast proliferation, as described above.

osteoblasts = conditions: background section; cited from earlier work
[2] = listed as amylin (1-8) with 2 to 7 disulphide bond removed

## C[C@H](NC(=O)[C@@H]1CSSC[C@H](NC(=O)[C@@H](N)CCCCN)C(=O)N[C@@H](CC(N)=O)C(=O)N[C@@H]([C@@H](C)O)C(=O)N[C@@H](C)C(=O)N[C@@H]([C@@H](C)O)C(=O)N1)C(N)=O [Amylin-(1-8), Lysine-c[cysteine-asparagine-threonine-alanine-threonine-cysteine]-alanine-NH2] (H-KCNTATCA-NH2; disulfide 2-7)
Fetal rat osteoblasts
  effect on osteoblast cell number: consistently stimulated
  effect on thymidine incorporation: consistently stimulated
Fetal rat osteoblasts; listed as (1-8) fragment
  effect on osteoblast cell number: stimulated both indices
  effect on thymidine incorporation: stimulated both indices
Fetal rat osteoblasts; 24 h, FIG. 2
  concentrations at which the maximal effect on cell number was seen: ≥ 10^−9 M
  maximal effect on cell number compared with intact amylin: not significantly less than that produced by the intact molecule
  EC50: 0.24 nM
Fetal rat osteoblasts; listed as Amylin (1-8)
  proliferative effect on osteoblasts: active
Fetal rat osteoblasts; listed as amylin-(1-8)
  proliferative effect on osteoblasts: stimulates osteoblast proliferation
Neonatal mouse calvariae
  effect on basal bone resorption: lack of effect
Neonatal mouse calvariae; additions at 0, 8 and 30 hours, data not shown
  effect on bone resorption, multiple additions: did not influence bone resorption
[1]
  effect of pre-incubation for two hours on osteoblastic activity: no effect
  osteoblastic activity after pre-incubation for four or more hours: completely lost their activity

## Amylin-(8-37): rat amylin fragment 8-37; functions as an amylin antagonist in other tissues
Fetal rat osteoblasts
  concentration that completely blocked the proliferative effect of intact amylin: ≥ 10^−10 M
[1]
  ability to block amylin's stimulation of osteoblast proliferation after pre-incubation: decreased their ability to block

## Amylin: 37-amino acid peptide co-secreted with insulin from the beta cells of the pancreatic islets; rat amylin used
Fetal rat osteoblasts
  effect on osteoblast cell number: significant increase
  effect on thymidine incorporation: significant increase
Fetal rat osteoblasts; 24 h, FIG. 2
  EC50: 0.02 nM
Neonatal mouse calvariae
  effect on basal bone resorption: inhibited basal bone resorption
[1]
  effect of pre-incubation for two hours on osteoblastic activity: no effect
  osteoblastic activity after pre-incubation for four or more hours: completely lost their activity
osteoblasts
  concentrations giving dose-dependent stimulation of osteoblast proliferation: ≥ 10^−11 M

## CGRP-(8-37): the comparable (8-37) peptide fragment from CGRP (calcitonin gene-related peptide) (VTHRLAGLLSRSGGVVKNNFVPTNVGSKAF; ends and bridges not checked)
Fetal rat osteoblasts
  concentration that completely blocked the proliferative effect of intact amylin: > 10^−8 M

## Reduced Amylin: Rat amylin reduced with dithiothreitol (2-7 disulphide removed)
Fetal rat osteoblasts
  proliferative effect on osteoblasts: no proliferative effect
  blocking of the action of intact amylin on cell number: effective blockers
  blocking of the action of intact amylin on thymidine incorporation: effective blockers
[1]
  ability to block amylin's stimulation of osteoblast proliferation after pre-incubation: decreased their ability to block

## Reduced amylin (1-8): amylin (1-8) reduced with dithiothreitol, 2 to 7 disulphide bond removed (KCNTATCA; Islet amyloid polypeptide reduced, disulphide removed; UniProt P12969 38-45, looked up, fragment)
Fetal rat osteoblasts
  proliferative effect on osteoblasts: no proliferative effect
  blocking of the effects of amylin-(1-8) on osteoblast proliferation: effective blocker
  blocking of the action of intact amylin on cell number: effective blocker
  blocking of the action of intact amylin on thymidine incorporation: effective blocker
Fetal rat osteoblasts; [2]
  proliferative effect on osteoblasts: inactive
  blocking of the effects of amylin-(1-8) on osteoblast proliferation: blocks the activity of amylin (1-8)
Neonatal mouse calvariae; with amylin
  blocking of amylin's inhibition of bone resorption: did not act as a blocker
